Measured values as given in PubChem BioAssay (NCI).
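In this assay, cells in 96-well plates receive the compound at five concentrations for 48 hours. Endpoints are linearly interpolated between the surrounding concentrations. GI50 = concentration required for 50% inhibition of growth. TGI: total growth inhibition.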

Tests used:
Experiment in all cases: NCI anticancer screen, dose series, 48 h
SR leukemia = tested on: SR leukemia
HOP-92 NSCLC = tested on: HOP-92 NSCLC
786-0 renal = tested on: 786-0 renal
SNB-75 CNS = tested on: SNB-75 CNS
SW-620 colon = tested on: SW-620 colon
NCI/ADR-RES ovarian = tested on: NCI/ADR-RES ovarian
MDA-MB-468 breast = tested on: MDA-MB-468 breast
NCI-H226 lung = tested on: NCI-H226 lung
RXF 393 renal = tested on: RXF 393 renal
MOLT-4 leukemia = tested on: MOLT-4 leukemia
M14 melanoma = tested on: M14 melanoma
NCI-H23 lung = tested on: NCI-H23 lung
UACC-257 melanoma = tested on: UACC-257 melanoma
OVCAR-4 ovarian = tested on: OVCAR-4 ovarian
SF-268 CNS = tested on: SF-268 CNS
LOX IMVI melanoma = tested on: LOX IMVI melanoma
NCI-H522 lung = tested on: NCI-H522 lung
UO-31 renal = tested on: UO-31 renal
A549 NSCLC = tested on: A549 NSCLC
EKVX NSCLC = tested on: EKVX NSCLC
HS 578T breast = tested on: HS 578T breast
SN12C renal = tested on: SN12C renal
MCF7 breast = tested on: MCF7 breast
HCC-2998 colon = tested on: HCC-2998 colon
SK-MEL-2 melanoma = tested on: SK-MEL-2 melanoma
SNB-19 CNS = tested on: SNB-19 CNS
HT29 colon = tested on: HT29 colon
HCT-15 colon = tested on: HCT-15 colon
DU-145 prostate = tested on: DU-145 prostate
K-562 leukemia = tested on: K-562 leukemia
CCRF-CEM leukemia = tested on: CCRF-CEM leukemia
OVCAR-3 ovarian = tested on: OVCAR-3 ovarian
SF-295 CNS = tested on: SF-295 CNS
PC-3 prostate = tested on: PC-3 prostate
U251 CNS = tested on: U251 CNS
ACHN renal = tested on: ACHN renal
UACC-62 melanoma = tested on: UACC-62 melanoma
HOP-62 NSCLC = tested on: HOP-62 NSCLC
OVCAR-5 ovarian = tested on: OVCAR-5 ovarian
CAKI-1 renal = tested on: CAKI-1 renal
MDA-MB-435 = tested on: MDA-MB-435
MDA-MB-231 breast = tested on: MDA-MB-231 breast
HL-60(TB) leukemia = tested on: HL-60(TB) leukemia
KM12 colon = tested on: KM12 colon
RPMI-8226 leukemia = tested on: RPMI-8226 leukemia
SF-539 CNS = tested on: SF-539 CNS
OVCAR-8 ovarian = tested on: OVCAR-8 ovarian
SK-MEL-5 melanoma = tested on: SK-MEL-5 melanoma
SK-MEL-28 melanoma = tested on: SK-MEL-28 melanoma
COLO 205 colon = tested on: COLO 205 colon
T-47D breast = tested on: T-47D breast
TK-10 renal = tested on: TK-10 renal
BT-549 breast = tested on: BT-549 breast
MALME-3M melanoma = tested on: MALME-3M melanoma
NCI-H460 lung = tested on: NCI-H460 lung
A498 renal = tested on: A498 renal
SK-OV-3 ovarian = tested on: SK-OV-3 ovarian
IGROV1 ovarian = tested on: IGROV1 ovarian

Question: What does the source list for CN1CCN(c2ccc(C(=O)/C=C/c3cc(C(F)(F)F)ccc3Cl)cc2)CC1?
Answer: GI50 (SR leukemia): > 100 µM; TGI (SR leukemia): > 100 µM; GI50 (HOP-92 NSCLC): 3.79 µM; TGI (HOP-92 NSCLC): 18.1 µM; GI50 (786-0 renal): 2.22 µM; TGI (786-0 renal): 5.74 µM; GI50 (SNB-75 CNS): 2.66 µM; TGI (SNB-75 CNS): 15.6 µM; GI50 (SW-620 colon): 2.08 µM; TGI (SW-620 colon): 4.02 µM; GI50 (NCI/ADR-RES ovarian): 3.5 µM; TGI (NCI/ADR-RES ovarian): 12.8 µM; GI50 (MDA-MB-468 breast): 1.59 µM; TGI (MDA-MB-468 breast): 3.48 µM; GI50 (NCI-H226 lung): 4.55 µM; TGI (NCI-H226 lung): 18.6 µM; GI50 (RXF 393 renal): 2.16 µM; TGI (RXF 393 renal): 11.1 µM; GI50 (MOLT-4 leukemia): 4.94 µM; TGI (MOLT-4 leukemia): 93.6 µM; GI50 (M14 melanoma): 3.13 µM; TGI (M14 melanoma): 10.9 µM; GI50 (NCI-H23 lung): 3.89 µM; TGI (NCI-H23 lung): 14.2 µM; GI50 (UACC-257 melanoma): 10.4 µM; TGI (UACC-257 melanoma): 23.7 µM; GI50 (OVCAR-4 ovarian): 10.7 µM; TGI (OVCAR-4 ovarian): 29 µM; GI50 (SF-268 CNS): 14.1 µM; TGI (SF-268 CNS): 37.7 µM; GI50 (LOX IMVI melanoma): 1.63 µM; TGI (LOX IMVI melanoma): 2.99 µM; GI50 (NCI-H522 lung): 12.3 µM; TGI (NCI-H522 lung): 27.9 µM; GI50 (UO-31 renal): 4.09 µM; TGI (UO-31 renal): 16.4 µM; GI50 (A549 NSCLC): 3.65 µM; TGI (A549 NSCLC): 14.8 µM; GI50 (EKVX NSCLC): 5.94 µM; TGI (EKVX NSCLC): 19 µM; GI50 (HS 578T breast): 5.48 µM; TGI (HS 578T breast): 28.7 µM; GI50 (SN12C renal): 4.32 µM; TGI (SN12C renal): 16.4 µM; GI50 (MCF7 breast): 1.42 µM; TGI (MCF7 breast): 2.94 µM; GI50 (HCC-2998 colon): 1.81 µM; TGI (HCC-2998 colon): 3.2 µM; GI50 (SK-MEL-2 melanoma): 17 µM; TGI (SK-MEL-2 melanoma): 32 µM; GI50 (SNB-19 CNS): 8.95 µM; TGI (SNB-19 CNS): 21 µM; GI50 (HT29 colon): 2.01 µM; TGI (HT29 colon): 5.02 µM; GI50 (HCT-15 colon): 1.87 µM; TGI (HCT-15 colon): 3.78 µM; GI50 (DU-145 prostate): 5.5 µM; TGI (DU-145 prostate): 20.5 µM; GI50 (K-562 leukemia): 2.17 µM; TGI (K-562 leukemia): > 100 µM; GI50 (CCRF-CEM leukemia): 2.17 µM; TGI (CCRF-CEM leukemia): 5.93 µM; GI50 (OVCAR-3 ovarian): 4.08 µM; TGI (OVCAR-3 ovarian): 14.4 µM; GI50 (SF-295 CNS): 6.89 µM; TGI (SF-295 CNS): 19.8 µM; GI50 (PC-3 prostate): 3.06 µM; TGI (PC-3 prostate): 13.2 µM; GI50 (U251 CNS): 2.1 µM; TGI (U251 CNS): 4.85 µM; GI50 (ACHN renal): 4.92 µM; TGI (ACHN renal): 16.8 µM; GI50 (UACC-62 melanoma): 10.9 µM; TGI (UACC-62 melanoma): 22.8 µM; GI50 (HOP-62 NSCLC): 13.9 µM; TGI (HOP-62 NSCLC): 29.7 µM; GI50 (OVCAR-5 ovarian): 13.9 µM; TGI (OVCAR-5 ovarian): 26.9 µM; GI50 (CAKI-1 renal): 8.23 µM; TGI (CAKI-1 renal): 21.2 µM; GI50 (MDA-MB-435): 2.14 µM; TGI (MDA-MB-435): 5.06 µM; GI50 (MDA-MB-231 breast): 2.81 µM; TGI (MDA-MB-231 breast): 8.01 µM; GI50 (HL-60(TB) leukemia): 2.14 µM; TGI (HL-60(TB) leukemia): 7.53 µM; GI50 (KM12 colon): 3.1 µM; TGI (KM12 colon): 9.83 µM; GI50 (RPMI-8226 leukemia): 1.77 µM; TGI (RPMI-8226 leukemia): 4.68 µM; GI50 (SF-539 CNS): 1.92 µM; TGI (SF-539 CNS): 4.38 µM; GI50 (OVCAR-8 ovarian): 9.04 µM; TGI (OVCAR-8 ovarian): 26.2 µM; GI50 (SK-MEL-5 melanoma): 3.71 µM; TGI (SK-MEL-5 melanoma): 15 µM; GI50 (SK-MEL-28 melanoma): 10.5 µM; TGI (SK-MEL-28 melanoma): 22.3 µM; GI50 (COLO 205 colon): 3.48 µM; TGI (COLO 205 colon): 10.7 µM; GI50 (T-47D breast): 12.3 µM; TGI (T-47D breast): 39.8 µM; GI50 (TK-10 renal): 13.5 µM; TGI (TK-10 renal): 29 µM; GI50 (BT-549 breast): 5.42 µM; TGI (BT-549 breast): 20.4 µM; GI50 (MALME-3M melanoma): 11.2 µM; TGI (MALME-3M melanoma): 23.4 µM; GI50 (NCI-H460 lung): 8.73 µM; TGI (NCI-H460 lung): 22.3 µM; GI50 (A498 renal): 17.4 µM; TGI (A498 renal): 32 µM; GI50 (SK-OV-3 ovarian): 5.66 µM; TGI (SK-OV-3 ovarian): 18.8 µM; GI50 (IGROV1 ovarian): 3.33 µM; TGI (IGROV1 ovarian): 13 µM
